US20110086834A1, “ALKYNYL ALCOHOLS AS KINASE INHIBITORS” (AMGEN INC., priority 2008, published 2011)

Target: T1, NIK (Homo sapiens, UniProt Q99558)
T1 construct: Both assays utilize a truncated form of NIK containing only the catalytic domain; made in house; host or cells: baculovirus expression system (insect cells implied)
Assay: homogenous time resolved fluorescence (HTRF) assay for NIK Ki measurement
Assay type: biochemical
Settings: truncated NIK (catalytic domain only), autophosphorylation; 10 nM enzyme; 20, 100, 200 or 500 μM ATP; room temperature, 2 hours; read-out: Ki activity in the homogenous time resolved fluorescence (HTRF) assay for NIK

T1 sequence (Q99558 400-655 limits assumed): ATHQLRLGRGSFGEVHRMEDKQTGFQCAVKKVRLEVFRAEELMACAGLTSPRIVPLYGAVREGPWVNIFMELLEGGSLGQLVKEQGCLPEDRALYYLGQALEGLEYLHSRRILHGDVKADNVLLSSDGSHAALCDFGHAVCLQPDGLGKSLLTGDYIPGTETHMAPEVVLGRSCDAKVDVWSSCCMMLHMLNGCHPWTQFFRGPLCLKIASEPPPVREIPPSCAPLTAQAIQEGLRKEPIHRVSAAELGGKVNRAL

Compound	Ki
COCCn1cc(-c2nc(N)ncc2Cl)c2cc(C#CC3(O)CCCC3)ccc21 [Example 125, 1-(2-(3-(2-amino-5-chloropyrimidin-4-yl)-1-(2-methoxyethyl)-1H-indol-5-yl)ethynyl)cyclopentanol]	< 1000 nM
Nc1ncc(Cl)c(-c2cn(CCN3CCOCC3)c3ccc(C#CC4(O)CCCC4)cc23)n1 [Example 126, 1-(2-(3-(2-amino-5-chloropyrimidin-4-yl)-1-(2-morpholinoethyl)-1H-indol-5-yl)ethynyl)cyclopentanol]	< 1000 nM
CCN(CC)CCn1cc(-c2nc(N)ncc2Cl)c2cc(C#CC3(O)CCCC3)ccc21 [Example 127, 1-(2-(3-(2-amino-5-chloropyrimidin-4-yl)-1-(2-(diethylamino)ethyl)-1H-indol-5-yl)ethynyl)cyclopentanol]	< 1000 nM
Nc1ncc(Cl)c(-c2cn(CC(=O)N3CCOCC3)c3ccc(C#CC4(O)CCCC4)cc23)n1 [Example 128, 2-(3-(2-amino-5-chloropyrimidin-4-yl)-5-(2-(1-hydroxycyclopentyl)ethynyl)-1H-indol-1-yl)-1-morpholinoethanone]	< 1000 nM
CCN(CC)C(=O)Cn1cc(-c2nc(N)ncc2Cl)c2cc(C#CC3(O)CCCC3)ccc21 [Example 129, 2-(3-(2-amino-5-chloropyrimidin-4-yl)-5-(2-(1-hydroxycyclopentyl)ethynyl)-1H-indol-1-yl)-N,N-diethylacetamide]	< 1000 nM
Nc1ncc(Cl)c(-c2cn(CCOCCOCCO)c3ccc(C#CC4(O)CCCC4)cc23)n1 [Example 130]	< 1000 nM
COCCOCCn1cc(-c2nc(N)ncc2Cl)c2cc(C#CC3(O)CCCCC3)ccc21 [Example 131, 1-(2-(3-(2-amino-5-chloropyrimidin-4-yl)-1-(2-(2-methoxyethoxy)ethyl)-1H-indol-5-yl)ethynyl)cyclohexanol]	< 1000 nM
Nc1ncc(Cl)c(-c2cn(CCN3CCOCC3)c3ccc(C#CC4(O)CCCCC4)cc23)n1 [Example 132, 1-(2-(3-(2-amino-5-chloropyrimidin-4-yl)-1-(2-morpholinoethyl)-1H-indol-5-yl)ethynyl)cyclohexanol]	< 1000 nM
COCCOCCn1cc(-c2nc(N)ncc2F)c2cc(C#CC3(O)CCCC3)ccc21 [Example 133, 1-(2-(3-(2-amino-5-fluoropyrimidin-4-yl)-1-(2-(2-methoxyethoxy)ethyl)-1H-indol-5-yl)ethynyl)cyclopentanol]	< 1000 nM
Nc1ncc(Cl)c(-c2cn(CC3CCOC3)c3ccc(C#CC4(O)CCCC4)cc23)n1 (centres unmarked) [Example 134, 1-(2-(3-(2-amino-5-chloropyrimidin-4-yl)-1-((tetrahydrofuran-3-yl)methyl)-1H-indol-5-yl)ethynyl)cyclopentanol]	< 1000 nM
Nc1ncc(F)c(-c2cn(CC3CCOC3)c3ccc(C#CC4(O)CCCC4)cc23)n1 (centres unmarked) [Example 135, 1-(2-(3-(2-amino-5-fluoropyrimidin-4-yl)-1-((tetrahydrofuran-3-yl)methyl)-1H-indol-5-yl)ethynyl)cyclopentanol]	< 1000 nM
Nc1ncc(Cl)c(-c2cn(C[C@@H]3CCCO3)c3ccc(C#CC4(O)CCCC4)cc23)n1 [Example 136, 1-(2-(3-(2-amino-5-chloropyrimidin-4-yl)-1-(((S)-tetrahydrofuran-2-yl)methyl)-1H-indol-5-yl)ethynyl)cyclopentanol]	< 1000 nM
CN1CCC(n2cc(-c3nc(N)ncc3Cl)c3cc(C#CC4(O)CCCC4)ccc32)C1 (centres unmarked) [Example 139, 1-(2-(3-(2-amino-5-chloropyrimidin-4-yl)-1-(1-methylpyrrolidin-3-yl)-1H-indol-5-yl)ethynyl)cyclopentanol]	< 1000 nM
COc1ccc(C#CC(C)(O)c2nccs2)cc1Nc1nc(N)ncc1Cl (centres unmarked) [Example 143, 4-(3-((2-amino-5-chloro-4-pyrimidinyl)amino)-4-(methyloxy)phenyl)-2-(1,3-thiazol-2-yl)-3-butyn-2-ol]	< 1000 nM
COc1ccc(C#CC(C)(O)c2cc(C)no2)cc1Nc1nc(N)ncc1Cl (centres unmarked) [Example 144, 4-(3-((2-amino-5-chloro-4-pyrimidinyl)amino)-4-(methyloxy)phenyl)-2-(3-methyl-5-isoxazolyl)-3-butyn-2-ol]	< 1000 nM
COc1ccc(C#CC2(O)CCCC2)cc1Nc1nc(N)ncc1Cl [Example 145, 1-((3-((2-amino-5-chloro-4-pyrimidinyl)amino)-4-(methyloxy)-phenyl)ethynyl)-cyclopentanol]	< 1000 nM
COc1ccc(C#C[C@@](C)(O)c2nccs2)cc1Nc1nc(N)ncc1Cl [Example 146, (R)-4-(3-(2-Amino-5-chloropyrimidin-4-ylamino)-4-methoxyphenyl)-2-(thiazol-2-yl)but-3-yn-2-ol]	< 1000 nM
CC(O)(C#Cc1cccc(Nc2nc(N)ncc2Cl)n1)c1nccs1 (centres unmarked) [Example 147, 4-(6-(2-Amino-5-chloropyrimidin-4-ylamino)pyridin-2-yl)-2-(thiazol-2-yl)but-3-yn-2-ol]	1000 to 30000 nM
Cc1cc(C(C)(O)C#Cc2ccc(OC3CCOCC3)c(Nc3nc(N)ncc3Cl)c2)no1 (centres unmarked) [Example 148, 4-(3-(2-Amino-5-chloropyrimidin-4-ylamino)-4-(tetrahydro-2H-pyran-4-yloxy)phenyl)-2-(5-methylisoxazol-3-yl)but-3-yn-2-ol]	< 1000 nM

Compound	Ki
Nc1ncc(Cl)c(Nc2cc(C#CC3(O)CCCC3)ccc2OC2CCOCC2)n1 [Example 149, 1-(2-(3-(2-Amino-5-chloropyrimidin-4-ylamino)-4-(tetrahydro-2H-pyran-4-yloxy)phenyl)ethynyl)cyclopentanol]	< 1000 nM
COc1ccc(C#CC(C)(O)c2cc(C)on2)cc1Nc1nc(N)ncc1Cl (centres unmarked) [Example 150, 4-(3-(2-Amino-5-chloropyrimidin-4-ylamino)-4-methoxyphenyl)-2-(5-methylisoxazol-3-yl)but-3-yn-2-ol]	< 1000 nM
COCCN(C)c1ccc(C#CC(C)(O)c2cc(C)on2)cc1Nc1nc(N)ncc1Cl (centres unmarked) [Example 151, 4-(3-(2-Amino-5-chloropyrimidin-4-ylamino)-4-((2-methoxyethyl)(methyl)amino)phenyl)-2-(5-methylisoxazol-3-yl)but-3-yn-2-ol]	< 1000 nM
CC(O)(C#Cc1ccc(OC2CCOCC2)c(Nc2nc(N)ncc2Cl)c1)c1nccs1 (centres unmarked) [Example 152, 4-(3-(2-Amino-5-chloropyrimidin-4-ylamino)-4-(tetrahydro-2H-pyran-4-yloxy)phenyl)-2-(thiazol-2-yl)but-3-yn-2-ol]	< 1000 nM
COCCN(C)c1ccc(C#C[C@](C)(O)c2nccs2)cc1Nc1nc(N)ncc1Cl [Example 153, (S)-4-(3-(2-Amino-5-chloropyrimidin-4-ylamino)-4-((2-methoxyethyl)(methyl)-amino)phenyl)-2-(thiazol-2-yl)but-3-yn-2-ol]	1000 to 30000 nM
COCCN(C)c1ccc(C#C[C@@](C)(O)c2nccs2)cc1Nc1nc(N)ncc1Cl [Example 154, (R)-4-(3-(2-Amino-5-chloropyrimidin-4-ylamino)-4-((2-methoxyethyl)(methyl)amino)phenyl)-2-(thiazol-2-yl)but-3-yn-2-ol]	< 1000 nM
CC(O)(C#Cc1ccc(O[C@H]2CCOC2)c(Nc2nc(N)ncc2Cl)c1)c1nccs1 (some centres unmarked) [Example 155]	< 1000 nM
Cc1cc(C(C)(O)C#Cc2ccc(O[C@H]3CCOC3)c(Nc3nc(N)ncc3Cl)c2)no1 (some centres unmarked) [Example 156]	< 1000 nM
CC(O)(C#Cc1ccc(CN2CCOCC2)c(Nc2nc(N)ncc2Cl)c1)c1nccs1 (centres unmarked) [Example 157, 4-(3-(2-Amino-5-chloropyrimidin-4-ylamino)-4-(morpholinomethyl)phenyl)-2-(thiazol-2-yl)but-3-yn-2-ol]	< 1000 nM
Cc1cc(C(C)(O)C#Cc2ccc(CN3CCOCC3)c(Nc3nc(N)ncc3Cl)c2)no1 (centres unmarked) [Example 158, 4-(3-(2-Amino-5-chloropyrimidin-4-ylamino)-4-(morpholinomethyl)phenyl)-2-(5-methylisoxazol-3-yl)but-3-yn-2-ol]	< 1000 nM
CC(O)(C#Cc1ccc(O[C@@H]2CCOC2)c(Nc2nc(N)ncc2Cl)c1)c1nccs1 (some centres unmarked) [Example 159]	< 1000 nM
Cc1ccc(C#CC(C)(O)c2nccs2)cc1Nc1nc(N)ncc1Cl (centres unmarked) [Example 160, 4-(3-(2-Amino-5-chloropyrimidin-4-ylamino)-4-methylphenyl)-2-(thiazol-2-yl)but-3-yn-2-ol]	< 1000 nM
Cc1cc(C(C)(O)C#Cc2ccc(C)c(Nc3nc(N)ncc3Cl)c2)no1 (centres unmarked) [Example 161, 4-(3-(2-Amino-5-chloropyrimidin-4-ylamino)-4-methylphenyl)-2-(5-methylisoxazol-3-yl)but-3-yn-2-ol]	< 1000 nM
C[C@](O)(C#Cc1ccc(CN2CCOCC2)c(Nc2nc(N)ncc2Cl)c1)c1nccs1 [Example 162, (S)-4-(3-(2-Amino-5-chloropyrimidin-4-ylamino)-4-(morpholinomethyl)phenyl)-2-(thiazol-2-yl)but-3-yn-2-ol]	< 1000 nM
C[C@@](O)(C#Cc1ccc(CN2CCOCC2)c(Nc2nc(N)ncc2Cl)c1)c1nccs1 [Example 163, (R)-4-(3-(2-Amino-5-chloropyrimidin-4-ylamino)-4-(morpholinomethyl)phenyl)-2-(thiazol-2-yl)but-3-yn-2-ol]	< 1000 nM
CN(c1cc(C#CC(C)(O)c2nccs2)ccc1OC1CCOCC1)c1nc(N)ncc1Cl (centres unmarked) [Example 165, 4-(3-((2-amino-5-chloropyrimidin-4-yl)(methyl)amino)-4-(tetrahydro-2H-pyran-4-yloxy)phenyl)-2-(thiazol-2-yl)but-3-yn-2-ol]	< 1000 nM
CC(O)(C#Cc1ccc(F)c(Nc2nc(N)ncc2Cl)c1)c1nccs1 (centres unmarked) [Example 166, 4-(3-(2-Amino-5-chloropyrimidin-4-ylamino)-4-fluorophenyl)-2-(thiazol-2-yl)but-3-yn-2-ol]	< 1000 nM
Cc1cc(C(C)(O)C#Cc2ccc(F)c(Nc3nc(N)ncc3Cl)c2)no1 (centres unmarked) [Example 167, 4-(3-(2-Amino-5-chloropyrimidin-4-ylamino)-4-fluorophenyl)-2-(5-methylisoxazol-3-yl)but-3-yn-2-ol]	< 1000 nM
CC(O)(C#Cc1cncc(C(=O)Nc2ccncn2)c1)c1nccs1 (centres unmarked) [Example 168, 5-(3-Hydroxy-3-(thiazol-2-yl)but-1-ynyl)-N-(pyrimidin-4-yl)nicotinamide]	1000 to 30000 nM
